# Measurements published in BindingDB's records for PubMed 8996189 (Pfizer, 1997).
# How the values were obtained:
# Adenosine receptor A3 [1] = target: T1, Adenosine receptor A3 (Oryctolagus cuniculus, UniProt O02667)
# T1 sequence (O02667 whole entry): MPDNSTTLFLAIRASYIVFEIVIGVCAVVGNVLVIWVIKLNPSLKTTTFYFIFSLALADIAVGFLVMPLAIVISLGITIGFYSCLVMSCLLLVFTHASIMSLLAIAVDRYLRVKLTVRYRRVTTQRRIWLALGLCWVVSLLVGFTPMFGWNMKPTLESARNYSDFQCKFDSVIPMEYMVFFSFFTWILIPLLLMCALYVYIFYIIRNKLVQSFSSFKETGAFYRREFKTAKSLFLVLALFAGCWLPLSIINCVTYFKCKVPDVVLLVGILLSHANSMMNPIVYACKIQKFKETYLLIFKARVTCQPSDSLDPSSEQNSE
# Adenosine receptor A1 [2] = target: T2, Adenosine receptor A1 (Oryctolagus cuniculus, UniProt P34970)
# T2 sequence (P34970 whole entry): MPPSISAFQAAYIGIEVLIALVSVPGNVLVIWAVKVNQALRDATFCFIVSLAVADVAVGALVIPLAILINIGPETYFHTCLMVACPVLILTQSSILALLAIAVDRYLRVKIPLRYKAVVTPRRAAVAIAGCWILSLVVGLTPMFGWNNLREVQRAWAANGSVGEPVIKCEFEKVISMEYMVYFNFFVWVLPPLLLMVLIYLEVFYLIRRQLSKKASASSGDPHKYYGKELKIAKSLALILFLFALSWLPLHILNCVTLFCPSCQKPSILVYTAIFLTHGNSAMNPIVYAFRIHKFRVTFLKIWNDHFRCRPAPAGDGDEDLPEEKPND
# Adenosine receptor A1 [3] = target: T3, Adenosine receptor A1 (Homo sapiens, UniProt P30542)
# T3 sequence (P30542 whole entry): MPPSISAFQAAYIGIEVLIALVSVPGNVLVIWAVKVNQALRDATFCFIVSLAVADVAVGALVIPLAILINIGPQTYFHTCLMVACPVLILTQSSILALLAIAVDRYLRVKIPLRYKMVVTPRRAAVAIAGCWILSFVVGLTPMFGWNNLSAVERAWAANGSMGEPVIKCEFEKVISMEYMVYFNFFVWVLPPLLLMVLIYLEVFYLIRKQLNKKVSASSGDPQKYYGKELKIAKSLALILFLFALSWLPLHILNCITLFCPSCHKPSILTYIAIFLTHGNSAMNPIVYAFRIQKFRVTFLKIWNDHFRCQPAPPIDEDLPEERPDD
# Adenosine receptor A3 [4] = target: T4, Adenosine receptor A3 (Homo sapiens, UniProt P0DMS8)
# T4 sequence (P0DMS8 whole entry): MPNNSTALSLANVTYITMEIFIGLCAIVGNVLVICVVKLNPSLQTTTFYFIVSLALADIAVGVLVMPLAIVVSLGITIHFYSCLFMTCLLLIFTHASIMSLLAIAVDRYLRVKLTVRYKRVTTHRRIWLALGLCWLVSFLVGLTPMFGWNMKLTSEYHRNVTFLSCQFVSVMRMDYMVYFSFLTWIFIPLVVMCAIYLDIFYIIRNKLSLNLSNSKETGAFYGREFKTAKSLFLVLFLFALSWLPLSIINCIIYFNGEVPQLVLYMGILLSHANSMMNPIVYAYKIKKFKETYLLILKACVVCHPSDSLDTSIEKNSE
# Adenosine receptor A3 [5] = target: T5, Adenosine receptor A3 (Ovis aries, UniProt P35342)
# T5 sequence (P35342 whole entry): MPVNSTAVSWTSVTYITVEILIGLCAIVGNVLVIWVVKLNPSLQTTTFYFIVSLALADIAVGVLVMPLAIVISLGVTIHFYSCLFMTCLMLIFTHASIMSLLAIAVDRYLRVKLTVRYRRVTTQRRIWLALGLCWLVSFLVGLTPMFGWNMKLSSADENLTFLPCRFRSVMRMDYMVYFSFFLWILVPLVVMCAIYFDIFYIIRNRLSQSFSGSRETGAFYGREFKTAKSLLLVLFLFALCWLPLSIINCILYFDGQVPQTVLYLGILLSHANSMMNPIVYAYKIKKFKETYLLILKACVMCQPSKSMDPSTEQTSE
Compound,Ki (Adenosine receptor A3 [1]),Ki (Adenosine receptor A1 [2]),Ki (Adenosine receptor A1 [3]),Ki (Adenosine receptor A3 [4]),Ki (Adenosine receptor A3 [5])
CCNC(=O)[C@H]1O[C@@H](n2cnc3c(N)ncnc32)[C@H](O)[C@@H]1O,27 nM,2 nM,–,–,–
CCCn1c(=O)c2[nH]c(-c3ccc(C=CC(=O)O)cc3)nc2n(CCC)c1=O [NSC_129447],746 nM,3 nM,120 nM,40 nM,21 nM
Nc1ccc(CNc2ncnc3c2ncn3[C@@H]2O[C@H](CO)[C@@H](O)[C@H]2O)cc1I [IABA],5 nM,4 nM,–,–,–
CC(Cc1ccccc1)Nc1ncnc2c1ncn2C1OC(CO)C(O)C1O (stereo not drawn) [R-N6-(2-phenylisopropyl) adenosine],49 nM,–,–,–,–
"Cn1c(=O)c2[nH]c(-c3ccc(S(=O)(=O)O)cc3)nc2n(C)c1=O [4-(1,3-Dimethyl-2,6-dioxo-2,3,6,7-tetrahydro-1H-purin-8-yl)-benzenesulfonic acid]",> 10000 nM,–,–,–,–

# Results, then the compound that gave them:
Ki (Adenosine receptor A3 [1]),Ki (Adenosine receptor A1 [2]),Ki (Adenosine receptor A1 [3]),Ki (Adenosine receptor A3 [4]),Ki (Adenosine receptor A3 [5]),Compound
1120 nM,–,–,–,–,CCCn1c(=O)c2[nH]c(C3CCCC3)nc2n(CCC)c1=O [DPCPX]
49 nM,–,–,–,–,OC[C@H]1O[C@@H](n2cnc3c(NC4CCCC4)ncnc32)[C@H](O)[C@@H]1O
–,30 nM,–,–,–,"CNC(=O)C1OC(n2cnc3c(NCc4cccc(I)c4)ncnc32)C(O)C1O (stereo not drawn) [3,4-dihydroxy-5-(6-{[(3-iodophenyl)methyl]amino}-9H-purin-9-yl)-N-methyloxolane-2-carboxamide]"
47 nM,6 nM,–,–,–,Nc1ccc(CCNc2ncnc3c2ncn3C2OC(CO)C(O)C2O)cc1 (stereo not drawn) [ChEMBL_198532]
329 nM,5 nM,–,–,–,"CCCn1c(=O)c2[nH]c(-c3ccc(OCC(=O)NCCN)cc3)nc2n(CCC)c1=O [N-(2-Amino-ethyl)-2-[4-(2,6-dioxo-1,3-dipropyl-2,3,6,9-tetrahydro-1H-purin-8-yl)-phenoxy]-acetamide]"
